Reference: article doi:10.1101/2022.04.05.487228v1 (biorxiv, 2022)

Target: bovine rod opsin (unliganded, in ROS membranes) (Bos taurus, UniProt P02699)
Assay: intrinsic Trp fluorescence quenching at […] nm
Type: binding

Chain of bovine rod opsin (unliganded, in ROS membranes) (P02699 whole entry): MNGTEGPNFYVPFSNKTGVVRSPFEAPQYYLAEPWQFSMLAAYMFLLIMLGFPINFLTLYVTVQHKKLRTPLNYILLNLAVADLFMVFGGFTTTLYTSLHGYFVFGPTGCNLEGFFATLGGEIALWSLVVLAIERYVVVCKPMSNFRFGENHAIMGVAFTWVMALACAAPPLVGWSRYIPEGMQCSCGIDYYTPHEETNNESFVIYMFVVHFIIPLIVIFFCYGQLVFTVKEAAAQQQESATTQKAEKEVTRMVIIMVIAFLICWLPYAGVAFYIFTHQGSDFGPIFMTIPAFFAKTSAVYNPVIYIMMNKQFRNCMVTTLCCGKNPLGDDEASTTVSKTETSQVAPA

Row | EC50 [nM] | SMILES
1 | 275 ± 26 | Cc1cc(=O)oc2cc(OC(C(=O)c3ccccc3)c3ccccc3)ccc12 (stereo not shown) [CR1]
2 | 375 ± 21 | Cc1c(OCc2ccc(C(=O)O)cc2)ccc2c3c(c(=O)oc12)CCC3 [CR2]
3 | 207 ± 46 | Cc1ccc(C(=O)Oc2ccc3c4c(c(=O)oc3c2)CCCC4)cc1 [CR3]
4 | 171 ± 23 | Cc1c(OC(C)C(=O)OCc2ccccc2)ccc2c3c(c(=O)oc12)CCC3 (stereo not shown) [CR4]
